Reference: US6916802B2, “Amino ceramide-like compounds and therapeutic methods of use” (Genzyme Corporation, priority 2002, dated 2005)

Key:
[1] = test system: GlcCer synthase of rabbit liver microsomes; test: GlcCer synthase of rabbit liver microsomes; type: biochemical
[2] = test system: GlcCer synthase of MDCK cell homogenates; test: Inhibition of ceramide glucosyltransferase (GlcCer synthase) of MDCK cell homogenates; type: biochemical, canine
In short: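 MDCK cell sonicate (~0.2 mg protein) incubated with octanoyl sphingosine (85 μg, in dioleoylphosphatidylcholine/sulfatide liposomes) and UDP-[^3H]glucose in a thermostatted ultrasonic bath. Aromatic inhibitors were dried into the tube; aliphatic inhibitors were incorporated in the substrate liposomes.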

## CCCCCCCCCCCCCCCC(=O)NC(CN1CCN(c2ccccc2)CC1)C(O)c1ccccc1 (mixture of isomers) [BML-112]
[1]
  inhibitory activity against GlcCer synthase of rabbit liver microsomes: no inhibitory activity
[2]
  activity against GlcCer synthase, in words: little or no activity
